# Laboratory results: PMC6504873, “High-throughput screening of the Plasmodium falciparum cGMP-dependent protein kinase identified a thiazole scaffold which kills erythrocytic and sexual stage parasites” (Scientific Reports, 2019)
# Legend:
# [1] = Aqueous kinetic solubility assay (CAD); type: physicochemical; details: several values in a cell = replicates
# Description: […] of 10 mM DMSO compound solution is diluted to 100 μl with pH7.4 phosphate buffered saline, equilibrated for 1 hour at room temperature and filtered through Millipore MultiscreenHTS-PCF filter plates (MSSL BPC). The filtrate is quantified by suitably calibrated Charged Aerosol Detector[56].
# [2] = biological target: T1, WT PfPKG (Plasmodium falciparum, UniProt Q8I719); assay: Kinase Glo enzymatic assay, recombinant WT PfPKG; type: biochemical, P. falciparum
# T1 construct: recombinant full length wild type (WT) PfPKG; His6 (N); host or cells: E. coli BL21
# T1 sequence (Q8I719 whole entry): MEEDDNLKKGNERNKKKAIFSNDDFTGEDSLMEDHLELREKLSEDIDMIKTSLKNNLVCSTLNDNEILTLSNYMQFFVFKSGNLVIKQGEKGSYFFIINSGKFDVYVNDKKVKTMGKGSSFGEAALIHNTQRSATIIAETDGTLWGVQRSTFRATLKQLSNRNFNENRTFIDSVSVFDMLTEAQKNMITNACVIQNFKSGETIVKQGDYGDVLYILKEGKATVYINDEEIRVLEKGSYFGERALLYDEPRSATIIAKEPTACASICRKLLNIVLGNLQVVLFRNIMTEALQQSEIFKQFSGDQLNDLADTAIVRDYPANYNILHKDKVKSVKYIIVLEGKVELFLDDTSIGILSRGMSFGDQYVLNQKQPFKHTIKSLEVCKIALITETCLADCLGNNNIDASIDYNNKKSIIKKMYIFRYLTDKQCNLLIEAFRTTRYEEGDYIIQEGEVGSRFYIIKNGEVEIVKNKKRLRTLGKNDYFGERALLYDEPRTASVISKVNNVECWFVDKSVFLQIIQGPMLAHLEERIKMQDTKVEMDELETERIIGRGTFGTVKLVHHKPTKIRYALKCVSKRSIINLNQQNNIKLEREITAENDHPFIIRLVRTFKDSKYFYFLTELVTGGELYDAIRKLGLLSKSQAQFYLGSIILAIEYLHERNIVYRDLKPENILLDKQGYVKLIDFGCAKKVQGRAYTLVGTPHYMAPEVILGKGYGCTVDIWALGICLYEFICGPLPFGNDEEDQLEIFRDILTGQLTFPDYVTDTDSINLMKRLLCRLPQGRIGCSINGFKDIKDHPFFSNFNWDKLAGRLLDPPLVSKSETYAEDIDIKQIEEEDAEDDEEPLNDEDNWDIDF
# Description: To identify new PKG inhibitor scaffolds, the 1.7 million GlaxoSmithKline Full Diversity collection was tested at a single final concentration of 10 μM against recombinant full length wild type (WT) PfPKG using a Kinase Glo-based assay (Promega). The results gave a robust Z′ mean value of 0.85. At an average statistical cut-off of 30%, 20,174 primary hits were identified with an overall hit rate of 1%. Fresh samples of these primary hits were tested in duplicate against WT PfPKG and also against human PKGIα (HuPKGIα) (Supplementary Fig. 1) at a final concentration of 10 μM (confirmation step).
# Protein production was outsourced to the Division of Signal Transduction Therapy, University of Dundee. Briefly, the pTRChis expression vectors (Invitrogen) containing an N-terminally His6-tagged PfPKG wildtype and T618Q were used to transform BL21 cells (protocol adapted from[23]). The cells were grown at 37 °C until the OD600 was 0.4–0.6 then the temperature was reduced to 15 °C and the cells were induced with 250 µM IPTG and grown for a further 16–18 hours before harvesting. The His6-PfPKG was purified on Cobalt agarose followed by gel filtration and the protein was dialysed into 25 mM Hepes pH 7.5, 0.1 mM EGTA, 150 mM NaCl, 50% glycerol and 2 mM DTT.
# Initial optimization of the PKG assay was performed manually in 384-well plates and analysed with GraFit 7. The buffer for all assays was 25 mM HEPES pH 7.3 (GIBCO), 10 mM MgCl2 (Sigma), 2 mM DTT (Sigma), 0.01 mM cGMP (Sigma), 0.1 mg/ml BSA (Ambion). Enzymatic activity was tested using a luminescence-based kit (Promega KinaseGlo). Addition of the first reagent depletes the unused ATP and addition of the second reagent converts ADP (product of the kinase reaction) to ATP, which is then measured through a luciferin/luciferase reaction. The amount of luminescence is directly proportional to ATP turnover by the kinase. The kit was chosen because it can be miniaturized to small volumes (i.e. 4 µl) in 1536-well plates, for use in HTS.
# We used PKA peptide substrate (SCP0212, Sigma-Aldrich) for WT and TQ PfPKG, dissolved in milliQ water at a final concentration of 5 mM, and Long S6 peptide substrate (produced at the University of Dundee, sequence […]) for HuPKGIα, dissolved in water at a final concentration of 30 mM.
# We calculated the Michaelis-Menten (Km) constant for ATP and peptide substrate (PKA or Long S6) for all enzymes using GraphPad Prism (Supplementary Figs 2 and 3 and Supplementary Table 3). In order to identify different types of PKG inhibitors, including ATP competitive or non-competitive inhibitors, as well as inhibitors that bind to the peptide substrate pocket, we performed all assays using ATP and peptide substrate at a concentration equal to the Km. We also determined enzyme activity by calculating ATP turnover (Kcat) over the Km (Supplementary Table 3). The Kcat was calculated as (Vmax*slope)/[E] where Vmax is the maximum velocity and [E] is the concentration of the enzyme.
# The plates containing the compounds were prepared at GSK in Upper Providence or Stevenage. Compounds were tested at a single final concentration of 10 µM or in a dose response with a range of concentrations starting from 100 μM to 1.6 nM (1 in 3 serial dilutions). Compounds were dispensed in the plates at the required concentration in a 40 nl volume. All plates (1536-well white Greiner) contained 40 nl of DMSO in lanes 11 and 12 (control 1, 100% enzyme activity) and were empty in lanes 35 and 36 (control 2, 0% enzyme activity). The plates were removed from −20 °C 1 hour before starting the assay. Using a Multidrop Combi dispenser (Thermo Scientific), 2 µl of the buffer containing ATP and the substrate were added to all wells then 2 µl of buffer only were added to column 35 and 36. Finally 2 µl of buffer containing the enzyme were dispensed in all the plate wells except for lanes 35 and 36. […]
# [3] = phosphate buffered saline, pH 7.4, aqueous buffer, kinetic from dmso stock
# [4] = WT PfPKG (μM), recombinant WT PfPKG
SMILES,"solubility at 1 h [1, 3]",solubility at 1 h [1],"IC50 [2, 4]","IC50 ([2]; IC50 (WT PfPKG activity), Figure 3, most scored compound of each cluster and singletons)"
Cc1ccc(S(C)(=O)=O)cc1Nc1nccc(-c2sc(CC(N)=O)nc2-c2ccccc2)n1 [Compound 3],138 µM,124 µM,0.013 µM,–
CNCCOc1cnc(-c2ccoc2C)c(-c2ccc3cnccc3c2)c1 [Compound 13],418 µM,–,0.007 µM,–
COc1ccc(CCNC(=O)CSc2ncnc3[nH]ncc23)cc1OC [Compound 8],254 µM,–,0.104 µM,–
COc1cc(CS(C)(=O)=O)ccc1Nc1nc(Nc2cc(F)ccc2C(N)=O)c2cc[nH]c2n1 [Compound 10],–,–,0.05 µM,–
COc1cccc(Nc2nc(-c3ccncc3)cc(N3CCN(C)CC3)n2)c1 [Compound 9],82 µM,–,0.027 µM,–
NCCNCc1ccc(-c2cc3ccncc3cc2OC2CCNCC2)s1 [Compound 12],–,–,0.324 µM,–
CCn1c(-c2nonc2N)nc2c(-c3ccccc3)ncc(CN(C)C3CCN(C)CC3)c21 [Compound 5],–,–,0.039 µM,–
CCn1cc(-c2ccncn2)c(-c2cccc(NS(=O)(=O)c3cc(F)ccc3F)c2)n1 [Compound 2],412 µM,–,0.041 µM,–
Nc1nc(Nc2cccc3cnccc23)nn1C(=O)C1CCCCC1 [Compound 16],69 µM,–,0.09 µM,–
COc1ccc(-c2c(-c3cccc(C(=O)N4CCN(C)CC4)c3)oc3ncnc(N)c23)cc1 [Compound 7],180 µM,–,0.01 µM,–
CNS(=O)(=O)c1cccc(Nc2ccnc(Nc3cccc(S(=O)(=O)NC)c3)n2)c1 [Compound 6],180 µM,–,0.07 µM,–
Nc1ccc2c(-c3ccncc3)c(-c3ccc(Cl)c(O)c3)[nH]c2n1 [Compound 15],–,–,0.022 µM,–
O=C(c1cccc(OCc2cccnc2)c1)N1CCc2sccc2C1CN1CCCCC1 (stereo not shown) [Compound 14],168 µM,–,0.036 µM,–
O=C(N[C@@H](CO)c1ccccc1)c1ccc2cncc(-c3cn[nH]c3)c2n1 [Compound 11],4 µM,–,0.094 µM,–
CC(C)(CN)c1cc(-c2ccc(Cl)c(O)c2)c(-c2ccncc2)o1 [Compound 4],252 µM,–,0.0017 µM,0.002 µM
